Data: US8394856B2, “(-)-Hydroxycitric acid for controlling inflammation” (Glykon Technologies Group, LLC, priority 2002, dated 2013)

Key:
[1] = literature (Sullivan and Gruen 1985); cited from earlier work
[2] = treated rats; Roche researchers (Sullivan and Triscari 1976); cited from earlier work
C-reactive protein = C-reactive protein in serum of rats fed a 30% fat, approximately 20% simple sugar diet; type: in vivo; conditions: salt approximately 76 mg/day
Description: (§1) To test the properties of HCA in various forms under conditions similar to those found in human clinical trials, the inventor arranged for rats to be fed a diet in which 30% of the calories were obtained from fat under standard conditions, with a further approximately 20% of the calories being supplied as simple sugars. Such a dietary combination of fat and simple sugars is noted as promoting a variety of metabolic imbalances and dysfunctions. The rats were intubated twice daily with one of five HCA salts or placebo. On weekends, the HCA was added to the food at an approprate dosage. The amount of HCA in each arm of 8 animals was based on the minimum dosage which had been found effective in the form of the pure trisodium salt of HCA in tests by Hoffmann-La Roche in animals ingesting a 70% glucose diet, i.e., 0.33 mmoles/kg body weight HCA given twice per day. […]
Tests were performed for C-reactive protein. […] Optical Density (OD) readings in the test kit used were 1 unit equals 50 picograms/mL. […]

[3] = Body weight in the same rat study; type: in vivo, rats; conditions: week 6; data not shown
Description: as §1, with “day. The HCA salts used were these: KCaHCA=a mixed potassium and calcium or double metal HCA salt commercially marketed as being entirely water soluble and of relatively high purity; KHCA=a relatively clean commercial potassium salt of HCA with a good mineral ligand attachment supplying 4467 mg potassium/100 grams of material; KMgHCA=three different dosage levels of an experimental potassium and magnesium salt with special characteristics, but suspected of being relatively unstable when exposed to stomach acid.” for “day.”

| Compound | crossing of the blood-brain barrier [1] | plasma levels of glucose, insulin, or free fatty acids relative to controls [2] | absolute CRP readings at week 4 compared with initially (C-reactive protein) | Δ OD units after 4 wks (C-reactive protein) (C-reactive protein; intubated twice daily, serum, start to week 4, 1 OD unit equals 50 picograms/mL) | body weight versus control [3] |
| --- | --- | --- | --- | --- | --- |
| O=C(O)CC(O)(C(=O)O)C(O)C(=O)O (single isomer, unassigned; (-)) [HCA, (−)-Hydroxycitric acid] | does not cross the blood-brain barrier | no significant differences | – | – | – |
| O=C([O-])CC(O)(C(=O)[O-])C(O)C(=O)[O-].[K+].[K+].[K+] (centres unmarked) [KHCA, potassium hydroxycitrate] | – | – | lower at week 4 than initially | −155 OD units | greatest trend differences |
